In patent US11724992B2 (Novartis AG, priority 2017, dated 2023) one finds IC50 data, which are given here for 25 compounds.

The first test deals with IL-1β production in PMA-differentiated THP-1 cells. The test can be described thus: IL-1β production in PMA-differentiated THP-1 cells stimulated with gramicidin (hTHP-1 assay, 2% fetal bovine serum; Procedures 1-3). The following applies: Homo sapiens, THP-1, hTHP-1 assay containing 2% fetal bovine serum; class symbols; read-out: hTHP-1 IC50 (Average IC50 of compounds in hTHP-1 assay). Format: cell-based, human. A digest of the protocol: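 PMA-differentiated (20 ng/ml, 16-18 h) THP-1 cells in RPMI with 2% FBS, 50,000 cells/well, preincubated 1 h with compound (final 100–0.0017 μM, 0.37% DMSO), then stimulated with 5 μM gramicidin for 2 h. Supernatant IL-1β measured by HTRF.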
In general, IC50 refers to the concentration that gives 50% inhibition. On to `Cc1oc(S(N)(=O)=NC(=O)Nc2c3c(cc4c2CCC4C)CCC3)cc1C(C)(C)O` (single isomer, unassigned) [Example 305, (R,S) or (R,R)-4-(2-hydroxypropan-2-yl)-5-methyl-N′-((3-methyl-1,2,3,5,6,7-hexahydro-s-indacen-4-yl)carbamoyl)furan-2-sulfonimidamide; resolved from example 123], for which the IC50 was in the range of 8 to 40 nM.

The test is the same for the next values; noted with them: hTHP-1 assay containing 2% fetal bovine serum; class symbols; read-out: hTHP-1 IC50 (Average IC50 of compounds in hTHP-1 assay).
In the case of `Cc1oc(S(N)(=O)=NC(=O)Nc2c3c(cc4c2C(C)CC4)CCC3)cc1C(C)(C)O` (single isomer, unassigned) [Example 303, (R,S) or (R,R) or (S,R) or (S,S)-4-(2-hydroxypropan-2-yl)-5-methyl-N′-((3-methyl-1,2,3,5,6,7-hexahydro-s-indacen-4-yl)carbamoyl)furan-2-sulfonimidamide resolved from example 127], the IC50 lay within 8 to 40 nM.
`Cc1oc(S(N)(=O)=NC(=O)Nc2c3c(cc4c2CCC4C)CCC3)cc1C(C)(C)O` (single isomer, unassigned) [Example 304, (R,R) or (R,S)-4-(2-hydroxypropan-2-yl)-5-methyl-N′-((3-methyl-1,2,3,5,6,7-hexahydro-s-indacen-4-yl)carbamoyl)furan-2-sulfonimidamide; resolved from example 123]: the IC50 was 40 to 200 nM.
For the compound `CC(C)(O)c1csc(S(N)(=O)=NC(=O)Nc2c3c(cc4c2CCC4)CCC3)n1` (single isomer, unassigned) [Example 306, (R) or (S)-N′-((1,2,3,5,6,7-hexahydro-s-indacen-4-yl)carbamoyl)-4-(2-hydroxypropan-2-yl)thiazole-2-sulfonimidamide], the IC50 was […].
The same measure, in the same setting: for `CC(C)(O)c1csc(S(N)(=O)=NC(=O)Nc2c3c(cc4c2CCC4)CCC3)n1` (single isomer, unassigned) [Example 307, (S) or (R)-N′-((1,2,3,5,6,7-hexahydro-s-indacen-4-yl)carbamoyl)-4-(2-hydroxypropan-2-yl)thiazole-2-sulfonimidamide] the value was […]; for `CC(C)(O)c1cc(S(N)(=O)=NC(=O)Nc2c3c(cc4c2CCC4)CCC3)nn1-c1ccccc1` (single isomer, unassigned) [Example 308, (S) or (R)-N′-((1,2,3,5,6,7-hexahydro-s-indacen-4-yl)carbamoyl)-5-(2-hydroxypropan-2-yl)-1-phenyl-1H-pyrazole-3-sulfonimidamide], 1000 to 5000 nM; for `CC(C)(O)c1cc(S(N)(=O)=NC(=O)Nc2c3c(cc4c2CCC4)CCC3)nn1-c1ccccc1` (single isomer, unassigned) [Example 309, (R) or (S)-N′-((1,2,3,5,6,7-hexahydro-s-indacen-4-yl)carbamoyl)-5-(2-hydroxypropan-2-yl)-1-phenyl-1H-pyrazole-3-sulfonimidamide], 40 to 200 nM.
Consider `CC(C)(O)c1csc(S(N)(=O)=NC(=O)Nc2c3c(c(F)c4c2CCC4)CCC3)n1` (single isomer, unassigned) [Example 310, (R) or (S)-N′-((8-fluoro-1,2,3,5,6,7-hexahydro-s-indacen-4-yl)carbamoyl)-4-(2-hydroxypropan-2-yl)thiazole-2-sulfonimidamide], for which the IC50 was in the range of 8 to 40 nM.
Consider `CC(C)(O)c1csc(S(N)(=O)=NC(=O)Nc2c3c(c(F)c4c2CCC4)CCC3)n1` (single isomer, unassigned) [Example 311, (S) or (R)-N′-((8-fluoro-1,2,3,5,6,7-hexahydro-s-indacen-4-yl)carbamoyl)-4-(2-hydroxypropan-2-yl)thiazole-2-sulfonimidamide], for which the IC50 lay within 200 to 1000 nM.
With `CNCc1ccc(S(N)(=O)=NC(=O)Nc2c3c(cc4c2CCC4)CCC3)cc1` (single isomer, unassigned) [Example 314, (S) or (R)-N′-((1,2,3,5,6,7-hexahydro-s-indacen-4-yl)carbamoyl)-4-((methylamino)methyl)benzenesulfonimidamide], the IC50 was in the range of 200 to 1000 nM.
Still for that read-out and setting: the result for `CNCc1ccc(S(N)(=O)=NC(=O)Nc2c3c(cc4c2CCC4)CCC3)cc1` (single isomer, unassigned) [Example 315, (R) or (S)-N′-((1,2,3,5,6,7-hexahydro-s-indacen-4-yl)carbamoyl)-4-((methylamino)methyl)benzenesulfonimidamide] reads 5000 to 30000 nM.
Consider `CC(C)c1cc(C#N)c(F)c(C(C)C)c1NC(=O)N=S(N)(=O)c1cnc(C(C)(O)CO)s1` (single isomer, unassigned) [Example 316, Two isomers of (R,R) or (R,S) or (S,S) or (S,R)-N′-((4-cyano-3-fluoro-2,6-diisopropylphenyl)carbamoyl)-2-(1,2-dihydroxypropan-2-yl)thiazole-5-sulfonimidamide], for which the IC50 was 200 to 1000 nM.
Take `CC(C)c1cc(C#N)c(F)c(C(C)C)c1NC(=O)N=S(N)(=O)c1cnc(C(C)(O)CO)s1` (single isomer, unassigned) [Example 317, (R,R) or (R,S) or (S,S) or (S,R)-N-((4-cyano-3-fluoro-2,6-diisopropylphenyl)carbamoyl)-2-(1,2-dihydroxypropan-2-yl)thiazole-5-sulfonimidamide]: the IC50 is 1000 to 5000 nM.
For `CC(C)c1cc(C#N)c(F)c(C(C)C)c1NC(=O)N=S(N)(=O)c1cnc(C(C)(O)CO)s1` (single isomer, unassigned) [Example 318, (S,S) or (S,R) or (R,R) or (R,S)-N-((4-cyano-3-fluoro-2,6-diisopropylphenyl)carbamoyl)-2-(1,2-dihydroxypropan-2-yl)thiazole-5-sulfonimidamide], the IC50 lay within 200 to 1000 nM.
Still for that read-out and setting: the result for `CC(C)(O)c1ccc(S(N)(=O)=NC(=O)Nc2c3c(cc4c2CCC4)CCC3)cn1` (single isomer, unassigned) [Example 319, (S) or (R)-N′-((1,2,3,5,6,7-hexahydro-s-indacen-4-yl)carbamoyl)-6-(2-hydroxypropan-2-yl)pyridine-3-sulfonimidamide] reads 1000 to 5000 nM; that for `CC(C)(O)c1ccc(S(N)(=O)=NC(=O)Nc2c3c(cc4c2CCC4)CCC3)cn1` (single isomer, unassigned) [Example 320, (R) or (S)-N′-((1,2,3,5,6,7-hexahydro-s-indacen-4-yl)carbamoyl)-6-(2-hydroxypropan-2-yl)pyridine-3-sulfonimidamide], 40 to 200 nM; that for `CC1CCc2c1cc1c(c2NC(=O)N=S(N)(=O)c2cnc(C(C)(C)O)s2)CCC1` (single isomer, unassigned) [Example 321, (S,S) or (S,R)-2-(2-hydroxypropan-2-yl)-N′-((1-methyl-1,2,3,5,6,7-hexahydro-s-indacen-4-yl)carbamoyl)thiazole-5-sulfonimidamide (from Example 291)], 1000 to 5000 nM.
For `CC1CCc2c1cc1c(c2NC(=O)N=S(N)(=O)c2cnc(C(C)(C)O)s2)CCC1` (single isomer, unassigned) [Example 322, (S,R) or (S,S)-2-(2-hydroxypropan-2-yl)-N′-((1-methyl-1,2,3,5,6,7-hexahydro-s-indacen-4-yl)carbamoyl)thiazole-5-sulfonimidamide (from Example 291)], the IC50 fell in the range of 200 to 1000 nM.
On the same count and under the same terms, the result for `CC1CCc2c1cc1c(c2NC(=O)N=S(N)(=O)c2cnc(C(C)(C)O)s2)CCC1` (single isomer, unassigned) [Example 323, (R,R) or (R,S)-2-(2-hydroxypropan-2-yl)-N′-((1-methyl-1,2,3,5,6,7-hexahydro-s-indacen-4-yl)carbamoyl)thiazole-5-sulfonimidamide (from Example 291)] reads 40 to 200 nM; that for `CC1CCc2c1cc1c(c2NC(=O)N=S(N)(=O)c2cnc(C(C)(C)O)s2)CCC1` (single isomer, unassigned) [Example 324, (R,S) or (R,R)-2-(2-hydroxypropan-2-yl)-N′-((1-methyl-1,2,3,5,6,7-hexahydro-s-indacen-4-yl)carbamoyl)thiazole-5-sulfonimidamide (from Example 291)], 8 to 40 nM.
For `CC1CCc2cc3c(c(NC(=O)N=S(N)(=O)c4cnc(C(C)(C)O)s4)c21)CCC3` (single isomer, unassigned) [Example 331, (S,S) or (S,R)-2-(2-hydroxypropan-2-yl)-N′-((3-methyl-1,2,3,5,6,7-hexahydro-s-indacen-4-yl)carbamoyl)thiazole-5-sulfonimidamide], the IC50 fell in the range of 5000 to 30000 nM.
Turning to `CC1CCc2cc3c(c(NC(=O)N=S(N)(=O)c4cnc(C(C)(C)O)s4)c21)CCC3` (single isomer, unassigned) [Example 332, (R,R) or (R,S)-2-(2-hydroxypropan-2-yl)-N′-((3-methyl-1,2,3,5,6,7-hexahydro-s-indacen-4-yl)carbamoyl)thiazole-5-sulfonimidamide], the IC50 was 200 to 1000 nM.
In the case of `CC1CCc2cc3c(c(NC(=O)N=S(N)(=O)c4cnc(C(C)(C)O)s4)c21)CCC3` (single isomer, unassigned) [Example 333, (S,R) or (S,S)-2-(2-hydroxypropan-2-yl)-N′-((3-methyl-1,2,3,5,6,7-hexahydro-s-indacen-4-yl)carbamoyl)thiazole-5-sulfonimidamide], the IC50 lay within 1000 to 5000 nM.
Turning to `CC1CCc2cc3c(c(NC(=O)N=S(N)(=O)c4cnc(C(C)(C)O)s4)c21)CCC3` (single isomer, unassigned) [Example 334, (R,S) or (R,R)-2-(2-hydroxypropan-2-yl)-N′-((3-methyl-1,2,3,5,6,7-hexahydro-s-indacen-4-yl)carbamoyl)thiazole-5-sulfonimidamide], the IC50 lay within 8 to 40 nM.
For `CC(C)(O)c1ncc(S(N)(=O)=NC(=O)Nc2c3c(cc4c2CCC4=O)CCC3)s1` (single isomer, unassigned) [Example 335, (S) or (R)-2-(2-Hydroxypropan-2-yl)-N′-((1-oxo-1,2,3,5,6,7-hexahydro-s-indacen-4-yl)carbamoyl)thiazole-5-sulfonimidamide from Example 293], the IC50 fell in the range of 1000 to 5000 nM.
